Test results: patent EP0533925A1, “OPTICAL ISOMER OF R-FORM OF DIPHENYL ETHER DERIVATIVE AND HERBICIDE CONTAINING THE SAME AS ACTIVE INGREDIENT” (TEIJIN LIMITED, priority 1990, dated 1991)
Where a name gives a salt, the structure may show the parent alone.

Legend:
Assay in all cases: Herbicidal activity, spray of diphenyl ether with N-phosphonomethylglycine derivative (Test Examples 6 to 10)
Type in all cases: in vivo
Set-up in all cases: key: 0 means the state where the plants are as sound as before the application of the active compound; 1, 2, 3 and 4 mean varying degrees of the enfeebled state of the plants between 0 and 5; 1, 2, 3 and 4 mean varying degrees of the enfeebled state of the plants between 0 and 5; 1, 2, 3 and 4 mean varying degrees of the enfeebled state of the plants between 0 and 5; 1, 2, 3 and 4 mean varying degrees of the enfeebled state of the plants between 0 and 5; 5 is the state where the plants are withered or killed by application of the active compound
Conditions in all cases: Application 0.375 Kg/ha (117) alone
Setaria viridis = test system: Setaria viridis
Procedure: (§1) In these examples, all parts means parts by weight, unless otherwise noted. The herbicidal activity was evaluated on a scale of 6 degrees. In other words, 0 means the state where the plants are as sound as before the application of the active compound, while 5 is the state where the plants are withered or killed by application of the active compound, and 1, 2, 3 and 4 mean varying degrees of the enfeebled state of the plants between 0 and 5.
(§2) In each run, the diphenyl ether derivatives and the N-phosphonomethylglycine derivatives shown in Table 3 (in the indicated mixing ratios) was dissolved in 16 parts by volume of a mixture of water and acetone (1 : 1 by volume; containing 0.05 % of a nonionic surfactant, Sorpol-2680) in the indicated mixing ratio, respectively, to prepare spray solutions.
(§3) The plants tested were grown in vinyl resin pots (diameter 10 cm) filled with soil in a green house for 2 to 3 weeks after germination from seeds or tubers.
(§4) The spray solution was applied to the plants so that the total volume sprayed became 4 cc/100 cm², and the herbicidal activity was examined.
(§5) The alphabetical symbols in Tables 2 and 3 represent the following plants, respectively: a: Digitaria adscendens b: Setaria viridis c: Sorghum halepense d: Chenopodium album var. centrorubrum e: Amaranthus mangostanus f: Astragalus sinicus g: Abutilon theophrosti h: Solanum nigrum i: Xanthium strumarium j: Soybean; Glycine max k: Corn; Zea mays Table 2

[1] = test system: Chenopodium album var. centrorubrum
Procedure: as §1, §2, §3, §4, §5

Sorghum halepense = test system: Sorghum halepense
Procedure: as §1, §2, §3, §4, §5

Soybean; Glycine max = test system: Soybean; Glycine max
Procedure: as §1, §2, §3, §4, §5

Digitaria adscendens = test system: Digitaria adscendens
Procedure: as §1, §2, §3, §4, §5

Solanum nigrum = test system: Solanum nigrum
Procedure: as §1, §2, §3, §4, §5

Amaranthus mangostanus = test system: Amaranthus mangostanus
Procedure: as §1, §2, §3, §4, §5

What does the source list for `O=C(O)CNCP(=O)(O)O` [Compound (117), N-phosphonomethylglycine isopropylammonium salt]?
herbicidal activity, Plants b (Setaria viridis; 3 days after treatment): 0; herbicidal activity, Plants b (Setaria viridis; 7 days after treatment): 0; herbicidal activity, Plants b (Setaria viridis; 14 days after treatment): 1; herbicidal activity, Plants d ([1]; 3 days after treatment): 0; herbicidal activity, Plants d ([1]; 7 days after treatment): 0; herbicidal activity, Plants d ([1]; 14 days after treatment): 1; herbicidal activity, Plants c (Sorghum halepense; 3 days after treatment): 0; herbicidal activity, Plants c (Sorghum halepense; 7 days after treatment): 0; herbicidal activity, Plants c (Sorghum halepense; 14 days after treatment): 1; herbicidal activity, Plants j (Soybean; Glycine max; 3 days after treatment): 0; herbicidal activity, Plants j (Soybean; Glycine max; 7 days after treatment): 0; herbicidal activity, Plants j (Soybean; Glycine max; 14 days after treatment): 0; herbicidal activity, Plants a (Digitaria adscendens; 3 days after treatment): 3; herbicidal activity, Plants a (Digitaria adscendens; 7 days after treatment): 1; herbicidal activity, Plants a (Digitaria adscendens; 14 days after treatment): 3; herbicidal activity, Plants h (Solanum nigrum; 3 days after treatment): 0; herbicidal activity, Plants h (Solanum nigrum; 7 days after treatment): 0; herbicidal activity, Plants h (Solanum nigrum; 14 days after treatment): 0; herbicidal activity, Plants e (Amaranthus mangostanus; 3 days after treatment): 0; herbicidal activity, Plants e (Amaranthus mangostanus; 7 days after treatment): 0; herbicidal activity, Plants e (Amaranthus mangostanus; 14 days after treatment): 0
